Reference: PubChem BioAssay AID328 (DTP/NCI, 2004)
Several values for one entry are separate records, joined by “and”; a condition that tells them apart may be missing. Equal entries are not always repeated. Toxic doses and inconclusive results are not listed. How the source made its calls: active means survival T/C of 150% or more; inactive means T/C below 125% in these data.

System: BDF1 mice, P388 leukemia ip, median survival T/C
Assay: NCI In Vivo Anticancer Drug Screen. Data for tumor model P388 Leukemia (intraperitoneal) in B6D2F1 (BDF1) mice
Conditions: endpoint: median survival time, higher = longer survival
Outline: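 Mice carrying the transplantable tumour receive compound or vehicle. Survival is followed in each arm, and the treated measure is divided by the vehicle measure.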

[1] = dose: 6.25 mg/kg/injection, schedule: Q01DX009 (ip), vehicle: saline
[2] = dose: 50.0 mg/kg/injection, schedule: Q04DX003 (ip), vehicle: Klucel (hydroxypropylcellulose) (HPC)
[3] = dose: 50.0 mg/kg/injection, schedule: Q01DX009 (ip), vehicle: saline with Tween-80
[4] = dose: 100.0 mg/kg/injection, schedule: Q01DX009 (ip), vehicle: saline with Tween-80
[5] = dose: 200.0 mg/kg/injection, schedule: Q01DX009 (ip), vehicle: saline with Tween-80
[6] = dose: 400.0 mg/kg/injection, schedule: Q01DX009 (ip), vehicle: saline with Tween-80
[7] = dose: 100.0 mg/kg/injection, schedule: Q04DX003 (ip), vehicle: saline
[8] = dose: 200.0 mg/kg/injection, schedule: Q04DX003 (ip), vehicle: saline
[9] = dose: 400.0 mg/kg/injection, schedule: Q04DX003 (ip), vehicle: saline
[10] = dose: 100.0 mg/kg/injection, schedule: Q01DX009 (ip), vehicle: saline
[11] = dose: 200.0 mg/kg/injection, schedule: Q01DX009 (ip), vehicle: saline
[12] = dose: 100.0 mg/kg/injection, schedule: Q04DX003 (ip), vehicle: saline with Tween-80
[13] = dose: 200.0 mg/kg/injection, schedule: Q04DX003 (ip), vehicle: saline with Tween-80
[14] = dose: 400.0 mg/kg/injection, schedule: Q04DX003 (ip), vehicle: saline with Tween-80
[15] = dose: 25.0 mg/kg/injection, schedule: Q01DX009 (ip), vehicle: saline

Measured: T/C

CC[NH-].CC[NH-].[I][Pt+2][I]
active: dose: 3.12 mg/kg/injection, schedule: Q01DX009 (ip), vehicle: saline 190 % of control | [1] 185 % of control

c1ccc([P+](CCCCCCCCCC[P+](c2ccccc2)(c2ccccc2)c2ccccc2)(c2ccccc2)c2ccccc2)cc1
inactive: dose: 2.5 mg/kg/injection, schedule: Q01DX010 (ip), vehicle: saline 100 % of control | dose: 5.0 mg/kg/injection, schedule: Q01DX010 (ip), vehicle: saline 109 % of control

CN(C)c1ccc(C=O)c(Oc2ccccc2)c1
inactive: dose: 12.5 mg/kg/injection, schedule: Q04DX003 (ip), vehicle: Klucel (hydroxypropylcellulose) (HPC) 91 % of control | dose: 25.0 mg/kg/injection, schedule: Q04DX003 (ip), vehicle: Klucel (hydroxypropylcellulose) (HPC) 108 % of control | [2] 91 % of control | dose: 200.0 mg/kg/injection, schedule: Q04DX003 (ip), vehicle: Klucel (hydroxypropylcellulose) (HPC) 100 % of control | dose: 400.0 mg/kg/injection, schedule: Q04DX003 (ip), vehicle: Klucel (hydroxypropylcellulose) (HPC) 100 % of control

N#CCCN(C(=O)Nc1ccc(Cl)c(Cl)c1)C1CCCCC1
inactive: [3] 124 % of control | [4] 104 % of control | [5] 94 % of control | [6] 97 % of control

CC1(C)C(=O)C(C)(C)C1=NO
inactive: [7] 95 % of control | [8] 100 % of control | [9] 95 % of control

Cc1cc(C)c(S(=O)(=O)OCCCl)c(C)c1
inactive: dose: 50.0 mg/kg/injection, schedule: Q01DX005 (ip), vehicle: Klucel (hydroxypropylcellulose) (HPC) 106 % of control | dose: 100.0 mg/kg/injection, schedule: Q01DX005 (ip), vehicle: Klucel (hydroxypropylcellulose) (HPC) 95 % of control

Cn1c2ccccc2c(=S)c2ccccc21
inactive: dose: 100.0 mg/kg/injection, schedule: Q01DX001 (ip), vehicle: saline with Tween-80 89 % of control | dose: 200.0 mg/kg/injection, schedule: Q01DX001 (ip), vehicle: saline with Tween-80 90 % of control

OCCCN1CNC(=S)NC1
inactive: [10] 108 % of control | [11] 108 % of control

O=C(NN(c1ccc([N+](=O)[O-])cc1)c1ccc([N+](=O)[O-])cc1)c1ccccc1
inactive: dose: 50.0 mg/kg/injection, schedule: Q01DX009 (ip), vehicle: Klucel (hydroxypropylcellulose) (HPC) 100 % of control | dose: 100.0 mg/kg/injection, schedule: Q01DX009 (ip), vehicle: Klucel (hydroxypropylcellulose) (HPC) 105 % of control | dose: 200.0 mg/kg/injection, schedule: Q01DX009 (ip), vehicle: Klucel (hydroxypropylcellulose) (HPC) 105 % of control

CCCCCCCCSSCCCCCCCC
inactive: [7] 95 % of control | [8] 100 % of control | [9] 95 % of control

CCNC(C)(C)C(O)c1ccc(Cl)s1 (centres undefined)
inactive: dose: 25.0 mg/kg/injection, schedule: Q01DX009 (ip), vehicle: saline with Tween-80 105 % of control | dose: 25.0 mg/kg/injection, schedule: Q04DX003 (ip), vehicle: saline with Tween-80 102 % of control | [3] 88 % of control | dose: 50.0 mg/kg/injection, schedule: Q04DX003 (ip), vehicle: saline with Tween-80 100 % of control | [4] 88 % of control | [12] 86 % of control and 101 % of control | [13] 88 % of control and 104 % of control | [14] 92 % of control

Cc1cnn(O)c(=NCCCl)n1
inactive: dose: 100.0 mg/kg/injection, schedule: Q04DX002 (ip), vehicle: saline with Tween-80 99 % of control | dose: 200.0 mg/kg/injection, schedule: Q04DX002 (ip), vehicle: saline with Tween-80 99 % of control | dose: 400.0 mg/kg/injection, schedule: Q04DX002 (ip), vehicle: saline with Tween-80 99 % of control

C[n+]1cc2cc(O)c(O)cc2c2ccc3cc(O)c(O)cc3c21
inactive: dose: 20.0 mg/kg/injection, schedule: Q01DX009 (ip), vehicle: saline 104 % of control | dose: 40.0 mg/kg/injection, schedule: Q01DX009 (ip), vehicle: saline 96 % of control | dose: 80.0 mg/kg/injection, schedule: Q01DX009 (ip), vehicle: saline 91 % of control | dose: 120.0 mg/kg/injection, schedule: Q01DX009 (ip), vehicle: saline 86 % of control | dose: 240.0 mg/kg/injection, schedule: Q01DX009 (ip), vehicle: saline 106 % of control

CCN(CC)CCSC(=O)C(O)(c1ccccc1)C1CCCC1 (centres undefined)
inactive: [15] 109 % of control | dose: 25.0 mg/kg/injection, schedule: Q04DX003 (ip), vehicle: saline 109 % of control | dose: 50.0 mg/kg/injection, schedule: Q01DX009 (ip), vehicle: saline 95 % of control | dose: 50.0 mg/kg/injection, schedule: Q04DX003 (ip), vehicle: saline 104 % of control | [10] 113 % of control | [7] 109 % of control

CC(C)C1(C)NC(=O)NC1=O (centres undefined)
inactive: dose: 100.0 mg/kg/injection, schedule: Q01DX001 (ip), vehicle: saline 113 % of control | dose: 200.0 mg/kg/injection, schedule: Q01DX001 (ip), vehicle: saline 109 % of control | dose: 400.0 mg/kg/injection, schedule: Q01DX001 (ip), vehicle: saline 95 % of control

CCOC(=S)S
inactive: [10] 100 % of control | [11] 95 % of control

O=NN(CCF)C(=O)NC12CC3CC(CC(C3)C1)C2
inactive: dose: 5.5 mg/kg/injection, schedule: Q04DX003 (ip), vehicle: Klucel (hydroxypropylcellulose) (HPC) 104 % of control | dose: 11.0 mg/kg/injection, schedule: Q04DX003 (ip), vehicle: Klucel (hydroxypropylcellulose) (HPC) 112 % of control
active: dose: 12.0 mg/kg/injection, schedule: Q01DX009 (ip), vehicle: Klucel (hydroxypropylcellulose) (HPC) 158 % of control | dose: 22.0 mg/kg/injection, schedule: Q04DX003 (ip), vehicle: Klucel (hydroxypropylcellulose) (HPC) 162 % of control and 180 % of control | dose: 25.0 mg/kg/injection, schedule: Q01DX009 (ip), vehicle: Klucel (hydroxypropylcellulose) (HPC) 250 % of control | dose: 33.0 mg/kg/injection, schedule: Q04DX003 (ip), vehicle: Klucel (hydroxypropylcellulose) (HPC) 240 % of control | [2] 245 % of control and 300 % of control

COc1cccc(C2NC(=O)c3c(n[nH]c3N)S2)c1O (centres undefined)
inactive: [3] 103 % of control | [4] 99 % of control | [5] 103 % of control

CC(=O)C1=CC2(OC3CCC(O)(C(=O)CO)C(C)O3)C(=O)c3c(cc4cccc(O)c4c3O)CC2C(O)C1O (centres undefined)
inactive: dose: 19.0 mg/kg/injection, schedule: Q01DX010 (ip), vehicle: carboxymethylcellulose (CMC) 100 % of control | dose: 38.0 mg/kg/injection, schedule: Q01DX010 (ip), vehicle: carboxymethylcellulose (CMC) 100 % of control | dose: 75.0 mg/kg/injection, schedule: Q01DX010 (ip), vehicle: carboxymethylcellulose (CMC) 104 % of control | dose: 150.0 mg/kg/injection, schedule: Q01DX010 (ip), vehicle: carboxymethylcellulose (CMC) 104 % of control

COC(=O)C/C(=C/C=C1/C(=O)ON=C1C)c1c(C)[nH]oc1=O
inactive: [10] 90 % of control | [11] 100 % of control | dose: 400.0 mg/kg/injection, schedule: Q01DX009 (ip), vehicle: saline 95 % of control

O=C(O)c1ccccc1-c1ccccc1C(=O)O
inactive: [12] 95 % of control | [13] 104 % of control | [14] 104 % of control

O=C(Nc1cccc(C(=O)Nc2ccc(C3=NCCN3)cc2)c1)c1ccc(C2=NCCN2)cc1
inactive: dose: 16.5 mg/kg/injection, schedule: Q01DX009 (ip), vehicle: saline 122 % of control

NC(=O)CCC(N)C(=O)O.[Cl-].[Cl-].[Cl-].[Cl-].[Pt+2] (centres undefined)
inactive: dose: 1.56 mg/kg/injection, schedule: Q01DX009 (ip), vehicle: saline 106 % of control | dose: 3.13 mg/kg/injection, schedule: Q01DX009 (ip), vehicle: saline 107 % of control | [1] 124 % of control
active: dose: 12.5 mg/kg/injection, schedule: Q01DX009 (ip), vehicle: saline 153 % of control | [15] 172 % of control

CC(=O)OCC(CCn1ccc(=O)[nH]c1=O)COC(C)=O
inactive: [4] 90 % of control | [12] 98 % of control | [5] 100 % of control | [13] 98 % of control | [6] 90 % of control | [14] 100 % of control

CC(=O)[C@H]1CC[C@H]2[C@@H]3C[C@H](C)C4=CC(=O)CC[C@]4(C)[C@H]3[C@@H](O)C[C@]12C
inactive: [12] 107 % of control | [13] 100 % of control
